This note sets out measurements from article PMC8145938, “Triphenilphosphonium Analogs of Chloramphenicol as Dual-Acting Antimicrobial and Antiproliferating Agents” (Antibiotics, 2021).

For assay [1], the system named is E. coli BW25113 ΔtolC pDualrep2 reporter strain. Description: pDualrep2 double fluorescent reporter assay on agar plate. It counts as cell-based. Conditions: compound spotted on agar lawn, overnight 37 °C. The text has this:
Next, we tested the effects of CAM-C10-TPP and CAM-C14-TPP in bacterial cells using an E. coli ∆tolC-based reporter system, which is designed to screen inhibitors targeting either protein synthesis or DNA replication. In this reporter system, the gene of the far-red fluorescent protein, katushka2S, is inserted downstream of the genetically modified tryptophan attenuator, making it possible to express Katushka2S only upon exposure to ribosome-stalling compounds (Figure 2B, CHL and ERY, red pseudocolor rings).
Reporter strain […] [71] ΔtolC (BW25113) pDualrep2 was used, as previously described. The tested antibiotics, CAM-C10-TPP (10 mM, 1.5 μL), CAM-C14-TPP (10 mM, 1.5 μL), C10-TPP (10 mM, 1.5 μL), C14-TPP (10 mM, 1.5 μL), CAM (10 mM, 1.5 μL), CAM-Ac (10 mM, 1.5 μL), chloramphenicol (CHL, 2 mM, 1 μL), erythromycin (Ery, 7 mM, 1 μL), and levofloxacin (Lev, 70 nM, 1 μL), were applied to an agar plate that already contained a lawn of the reporter strain. After being incubated overnight at 37 °C, the plate was scanned by ChemiDoc (Bio-Rad) in the modes, “Cy3-blot” for RFP and “Cy5-blot” for Katushka2S.

Another assay has as its system E. coli ∆tolC-CAT. Description: MIC determination, broth microdilution. Type of assay: cell-based. Particulars: Escherichia coli. As to the method: (§1) E. coli ∆tolC CHL-resistant strain harboring plasmid encoding for chloramphenicol acetyltransferase (cat) (pCA24N-LacZ) and the control E. coli ∆tolC strain was used to evaluate the inhibitory effect of the compounds. CHL-resistant strains of B. subtilis pHT01-cat and B. subtilis pHT01-cfr were prepared by means of a transformation of a B. subtilis 168 strain with plasmids harboring the cat and cfr genes (chloramphenicol-florfenicol resistance) gene. The cfr gene encodes for the methyltransferase, which catalyzes the methylation of […] in the 23S rRNA and causes resistance to a variety of ribosome-targeting antibiotics that bind in the A site of the bacterial ribosome.
(§2) A standard laboratory strain of E. coli JW5503, with the deletion of the tolC gene, referred to here as the ∆tolC strain, was used to obtain the ∆tolC pCA24N-LacZ strain by means of transformation with the plasmid pCA24N-LacZ-harboring chloramphenicol acetyltransferase (cat) gene.
(§3) The MICs for CAM-Cn-TPP and Cn-TPP were determined by Mueller-Hinton broth microdilution, as recommended by CLSI in the Methods for Dilution Antimicrobial Susceptibility Tests for Bacteria that Grow Aerobically, Approved Standard, 9th ed., CLSI document M07-A9, using in-house-prepared panels. The compounds were diluted in a 96-well microtiter plate to final concentrations ranging from 0.5 to 360 μM in a 250-µL aliquot of the bacterial suspension, followed by incubation at 37 °C or 30 °C for 18 h. […] The bacterial growth was observed visually alongside OD measurements. The experiments were carried out in triplicate.

The test system of a further assay is E. coli ∆tolC. Description: MIC determination, broth microdilution. Conditions: Escherichia coli. It counts as cell-based. As to the method: as §1, §2, §3
(Dilution methods test growth across graded concentrations, often in twofold steps.)

For the next assay, the system named is E. coli 70S ribosomes. Description: competition-binding assay with BODIPY-ERY (fluorescence anisotropy). Particulars: for Kd: displacement of BODIPY-ERY from E. coli 70S ribosomes, read-out: apparent dissociation constant (KDapp). The text has this: All new semi-synthetic CAM-Cn-TPP compounds were expected to bind and act on bacterial ribosomes by inhibiting protein synthesis, which is similar to CAM-C4-TPP and the PTC-targeting parent antibiotic CHL. To assess the affinity of CAM-C10-TPP and CAM-C14-TPP for the bacterial 70S ribosome (Figure 2A), a competition-binding assay exploiting BODIPY-labeled erythromycin (BODIPY-ERY) was used. […] It is likely that in the case of CAM-C14-TPP, the linker may be too long, preventing the optimal positioning of the TPP moiety in the NPET. Thus, CAM-C10-TPP and CAM-C14-TPP bind to the bacterial ribosome. However, their affinity strongly depends on the length of the linker connecting the two […]. Among the three CAM-Cn-TPPs, the C10-linker was optimal in terms of its ability to bind to the 70S ribosome.
The binding affinity of CAM-Cn-TPP to E. coli ribosomes was analyzed by a competition-binding assay using the fluorescently-labeled BODIPY-ERY, as described before. BODIPY-Ery (16 nM) was incubated with the ribosomes (50 nM) in the buffer containing 20 mM HEPES-KOH (pH 7.5), 50 mM NH4Cl, 10 mM Mg(CH3COO)2, 4 mM mercaptoethanol, and 0.05% Tween-20 for 30 min at 25 °C. Solutions of CHL, CAM-Cn-TPP, and CnTPP in different concentration ranges were added to the formed complex. The mixture was incubated for 2 h, until an equilibrium was reached, and the values of fluorescence anisotropy were measured by VICTOR X5 Multilabel Plate Reader (Perkin Elmer, Waltham, MA, USA). The dissociation constants were calculated based on the assumption of the equilibrium competitive binding of two ligands at a single binding site, as described in [70].
(In fluorescence polarisation assays a small probe gives low polarisation when free and higher when bound to something large.)

The subject of the next assay is B. subtilis pHT01-cfr. Description: MIC determination, broth microdilution. It counts as cell-based. Particulars: Bacillus subtilis, PHT01CFR. Here is the method:
as §1
(§4) A standard laboratory strain of B. subtilis 168 was used to obtain the CHL-resistant strains, B. subtilis pHT01-CAT and B. subtilis pHT01-cfr, by means of transformation with the corresponding plasmids. Competent cell preparation and transformation procedures were conducted, as reported in [74, 75]. The desired colonies were selected at 10 µg/mL of CHL for B. subtilis pHT01 and 5 µg/mL or 3.2 µg/mL of CHL for B. subtilis pHT01-cfr.
as §3

Another assay concerns B. subtilis pHT01-cat. In words: MIC determination, broth microdilution. Particulars: Bacillus subtilis, PHT01CAT. Type of assay: cell-based. Here is the method: as §1, §4, §3
Assay [2] concerns ribosome stalling on trpL mRNA in a cell-free translation system. In words: toeprinting (primer extension inhibition) assay on trpL mRNA. Type of assay: biochemical. Conditions: trpL mRNA template, 30 μM compound. From the text: To investigate the mechanism of action of CAM-C10-TPP and CAM-C14-TPP in the translation process, a primer extension inhibition assay (toeprinting) was used. This method allows for the unambiguous identification of drug-induced ribosome stalling sites along the mRNA, with single-nucleotide precision. This technique is also used to determine the context-specificity of antibiotic action. For this experiment, trpL mRNAs were chosen as the template, as in the pDualrep2 reporter system. […] Compared to the results obtained previously for CAM-C4-TPP using rst1 and rst2 mRNA templates, more unambiguous results were obtained using a trpL mRNA template. The main drug-induced ribosome stalling sites are different for CHL and CAM-Cn-TPP, and there are also CAM-Cn-TPP-specific stalling positions.
The toeprinting assay was carried out using trpL mRNA as a template, as described in [73], and the reactions were preincubated for 5 min with 30 μM of the tested compound.

Each structure is given as a SMILES string. In brackets after ≈: the same amount, converted by molar mass. Some results are limits rather than exact numbers.

The MIC is the lowest concentration that inhibits growth of the organism. Read a high MIC as a less susceptible organism. Take `O=C(N[C@H](CO)[C@H](O)c1ccc([N+](=O)[O-])cc1)C(Cl)Cl` [CHL, chloramphenicol]: the “induction of reporters (Katushka2S: ribosome stalling; RFP: DNA damage)” value (shortened to “induction of reporters”) in assay [1] is “red pseudocolor rings are observed due to the expression of the fluorescent protein, Katushka2S (but not RFP)”. Also, the MIC in the assay with E. coli ∆tolC-CAT is greater than 360 µM; against E. coli ∆tolC, 2.8 µM (≈ 0.905 µg/mL); against B. subtilis pHT01-cfr, 90 µM (≈ 29.1 µg/mL); with B. subtilis pHT01-cat, 180 µM (≈ 58.2 µg/mL). For the same molecule, the Kd in the assay with E. coli 70S ribosomes turned out to be 2800 ± 400 nM. Besides, in assay [2], the “drug-induced ribosome stalling site” value was “stalls ribosomes at the Ile4 codon”.
Regarding `O=C(CCCCCCCCCC[P+](c1ccccc1)(c1ccccc1)c1ccccc1)N[C@H](CO)[C@H](O)c1ccc([N+](=O)[O-])cc1` [CAM-C10-TPP, (N-{[(1R,2R)-1,3-dihydroxy-1-(4-nitrophenyl)propan-2-yl]amino}-11-oxoundecyl)(triphenyl)phosphonium bromide], the “induction of reporters” value in assay [1] was “red pseudocolor rings are observed due to the expression of the fluorescent protein, Katushka2S (but not RFP)”. In addition, the MIC was 25 µM against E. coli ∆tolC-CAT, 3 µM against E. coli ∆tolC, 6 µM with B. subtilis pHT01-cfr and 6 µM in the assay with B. subtilis pHT01-cat. Also, in the assay with E. coli 70S ribosomes, the Kd is 400 ± 40 nM. The “greater affinity to the ribosome compared to CAM-C4-TPP” value in the assay on E. coli 70S ribosomes (ratio of KDapp) is ~ 1.5 fold. In addition, the “greater affinity to the ribosome compared to the parent CHL” value in the assay on E. coli 70S ribosomes (ratio of KDapp) is listed as ~ 7 fold. Also, the “drug-induced ribosome stalling site” value in assay [2] is “blocked the ribosome progression at Val6 (Figure 2D, red arrowhead) and slightly blocked it at Ile4”.
For `O=C(CCCCCCCCCC[P+](c1ccccc1)(c1ccccc1)c1ccccc1)NCCCC(=O)N[C@H](CO)[C@H](O)c1ccc([N+](=O)[O-])cc1` [CAM-C14-TPP, N-[(1R,2R)-1,3-dihydroxy-1-(4-nitrophenyl)propan-2-yl]-4-(triphenyl)phosphoniumundecanamidobutamide bromide], in assay [1], the “induction of reporters” value is listed as “red pseudocolor rings are observed due to the expression of the fluorescent protein, Katushka2S (but not RFP)”. Besides, the MIC against E. coli ∆tolC-CAT stood at 12.5 µM; against E. coli ∆tolC, 12.5 µM; in the assay with B. subtilis pHT01-cfr it was 6 µM; in the assay with B. subtilis pHT01-cat it was 12.5 µM. In addition, in the assay on E. coli 70S ribosomes, the Kd amounted to 36000 ± 9000 nM. The “lower affinity to the 70S ribosome compared to CHL” value with E. coli 70S ribosomes (ratio of KDapp) is recorded as ~ 13 fold. Besides, the “lower affinity to the 70S ribosome compared to other CAM-Cn-TPPs” value in the assay with E. coli 70S ribosomes (ratio of KDapp) was 60-90 fold. Also, in assay [2], the “drug-induced ribosome stalling site” value is “blocked the ribosome progression at Val6 (Figure 2D, red arrowhead) and slightly blocked it at Ile4”.
